Paper PMC8996404, “The pharmacokinetics of buserelin after intramuscular administration in pigs and cows” (BMC Veterinary Research, 2022)
Read-outs that look alike come from different tables or passages of the source. Marks after values point to notes of the source that are not given here.

Assays:
[1] = Stability of buserelin in pig plasma (autosampler, benchtop, freeze–thaw); type: in vitro ADME; conditions: for Stability, Accuracy Mean ± SD: pig plasma, UPLC-MS/MS
Description: (§1) Selectivity has been assessed by comparing the chromatograms of blank plasma samples and those of corresponding items with buserelin to exclude the interfering peaks. The calibration curve was established by spiking the blank matrix with known concentration of buserelin. Limit of detection (LOD) and Limit of quantification (LOQ) were determined as the concentrations of buserelin which produced signal/ noise ratio of 3 and 10, respectively. For linearity of this method, calibration curves were generated by least squares regression method with a weighting factor and regression coefficient. Recovery was determined by comparing the analytical results of the extracted quality control (QC) samples with pure standard solution. The accuracy was assessed as the percentage of the measured concentration to the nominal standard concentration. The precision was expressed by coefficient of variation. Stability was assessed by autosampler, benchtop, freeze–thaw, and stock solution test. The matrix effect was obtained with the area of post-extraction blank plasma samples added with buserelin at two levels with the equivalent concentration standard solutions that added with initiate mobile phase.

[2] = Stability of buserelin in cow plasma (autosampler, benchtop, freeze–thaw); type: in vitro ADME; conditions: UPLC-MS/MS
Description: as §1

[3] = Stock solution stability test of buserelin; type: physicochemical; conditions: stock solution in methanol, concentration 100 ng/mL, UPLC-MS/MS
Description: A standard stock solution (1 mg/mL) was prepared by dissolving 2 mg standard buserelin in 2 mL methanol. This solution was stored in brown glass bottles at -20 ℃. Working solutions were prepared by diluting the stock solution with methanol.
as §1, with “The matrix effect was obtained with the area of post-extraction blank plasma samples added with buserelin at two levels with the equivalent concentration standard solutions that added with initiate mobile phase.” left out

[4] = cited from earlier work
Description: After being approved by the European Medicines Agency (EMA) in 1995 [1], there are some pharmacokinetic studies of buserelin been reported in humans and rats following subcutaneous (s.c.), intranasal (i.n.), or intravenous (i.v.) routes. […] Regardless of the administration route of buserelin, the elimination of half- ... || The Vd was 80.49 ± 43.88 L for pigs and 839.88 ± 174.77 L for cows, which is larger than pigs (304 ± 112 mL/kg) at a single dose 1 mg i.v., and dogs (50.1 ± 2.4 mL/kg) at a single dose 5 mg i.v.. High plasma concentration, high bonding rate, means more drugs cannot across the membrane and barrier. Therefore, binding changes can affect the distribution of drugs. Because protein binding of buserelin is about 15% [2], it is proportional to the body volume and body weight and animals using in this study had larger volume of body water or extracellular water. It has been repo ...

[5] = cited from earlier work; remark: listed apart in the source
Excerpt: After being approved by the European Medicines Agency (EMA) in 1995 [1], there are some pharmacokinetic studies of buserelin been reported in humans and rats following subcutaneous (s.c.), intranasal (i.n.), or intravenous (i.v.) routes. […] High plasma concentration, high bonding rate, means more drugs cannot across the membrane and barrier. Therefore, binding changes can affect the distribution of drugs. Because protein binding of buserelin is about 15% [2], it is proportional to the body volume and body weight and animals using in this study had larger volume of body water or extracellular water. It has been repo ...

[6] = dogs, cited from earlier work
Excerpt: High plasma concentration, high bonding rate, means more drugs cannot across the membrane and barrier. Therefore, binding changes can affect the distribution of drugs. Because protein binding of buserelin is about 15% [2], it is proportional to the body volume and body weight and animals using in this study had larger volume of body water or extracellular water. It has been repo ...

[7] = pigs, cited from earlier work
Description: (§2) The Vd was 80.49 ± 43.88 L for pigs and 839.88 ± 174.77 L for cows, which is larger than pigs (304 ± 112 mL/kg) at a single dose 1 mg i.v., and dogs (50.1 ± 2.4 mL/kg) at a single dose 5 mg i.v.. High plasma concentration, high bonding rate, means more drugs cannot across the membrane and barrier. Therefore, binding changes can affect the distribution of drugs. Because protein binding of buserelin is about 15% [2], it is proportional to the body volume and body weight and animals using in this study had larger volume of body water or extracellular water. It has been repo ...

[8] = system: pyroglutamyl-amino-peptidase; conditions: enzyme can be isolated from mammalian liver ref 2; cited from earlier work
Description: as §2

CCNC(=O)[C@@H]1CCCN1C(=O)[C@H](CCCNC(=N)N)NC(=O)[C@H](CC(C)C)NC(=O)[C@@H](COC(C)(C)C)NC(=O)[C@H](Cc1ccc(O)cc1)NC(=O)[C@H](CO)NC(=O)[C@H](Cc1c[nH]c2ccccc12)NC(=O)[C@H](Cc1cnc[nH]1)NC(=O)[C@@H]1CCC(=O)N1 [buserelin, Buserelin]
Stability, Accuracy Mean ± SD ([1]; autosampler, concentration 0.5 ng/mL): 0.51 ± 0.04 | Stability, Accuracy Mean ± SD ([1]; autosampler, concentration 20 ng/mL): 19.70 ± 2.32 | Stability, Accuracy Mean ± SD ([1]; benchtop, concentration 0.5 ng/mL): 0.47 ± 0.02 | Stability, Accuracy Mean ± SD ([1]; benchtop, concentration 20 ng/mL): 19.72 ± 1.61 | Stability, Accuracy Mean ± SD ([1]; freeze–thaw, concentration 0.5 ng/mL): 0.51 ± 0.04 | Stability, Accuracy Mean ± SD ([1]; freeze–thaw, concentration 20 ng/mL): 19.95 ± 1.12 | Stability during autosampler, benchtop, freeze–thaw, and stock solution test ([1]; summary statement for pig plasma, cow plasma and stock solution (Table 3)): stable | Stability, Accuracy Mean ± SD ([2]; autosampler, concentration 0.25 ng/mL): 0.24 ± 0.01 | Stability, Accuracy Mean ± SD ([2]; autosampler, concentration 4 ng/mL): 3.90 ± 0.30 | Stability, Accuracy Mean ± SD ([2]; benchtop, concentration 0.25 ng/mL): 0.25 ± 0.02 | Stability, Accuracy Mean ± SD ([2]; benchtop, concentration 4 ng/mL): 3.87 ± 0.41 | Stability, Accuracy Mean ± SD ([2]; freeze–thaw, concentration 0.25 ng/mL): 0.26 ± 0.02 | Stability, Accuracy Mean ± SD ([2]; freeze–thaw, concentration 4 ng/mL): 3.95 ± 0.34 | Stock solution stability, Mean ± SD ([3]; column Cow): 2.51 ± 0.05 Peak area (10^5) | Stock solution stability, Mean ± SD ([3]; column Pig): 2.50 ± 0.05 Peak area (10^5) | Protein binding [4]: about 15% | rapid initial half time / t1/2 ([4]; guinea pigs, i.v. ref 1): 12 min | tmax ([5]; health volunteers, single dose 5 µg s.c. ref 3): 42 min | tmax ([5]; health volunteers, single dose 150 µg i.n. ref 3): 58 min | tmax ([5]; health volunteers, single dose 300 µg i.n. ref 3): 43.8 min | tmax ([5]; health volunteers, single dose 450 µg i.n. ref 3): 38.8 min | tmax ([5]; health volunteers, single dose 500 µg i.v. ref 3): 20 min | elimination half-time ([5]; human, regardless of the administration route ref 2, 3): 72 to 120 min | tmax ([5]; rats (anesthetized), single dose of 0.1 mg/kg i.n. ref 18): 115 ± 25.2 min | rapid initial half time / t1/2 ([5]; rats, i.v. ref 1): 5 min | t1/2 ([5]; rats, single dose of 6 mg/kg s.c. injection ref 13): 42 min | clearance ([6]; 5 mg per dog i.v. injection ref 18): 1.7 ± 0.10 mL/min/kg | tmax ([6]; s.c. at a dose of 3.3 mg ref 18): 240 min | Vd ([6]; single dose 5 mg i.v. ref 18): 0.0501 ± 0.0024 L/kg | t1/2 ([6]; single dose of 5 mg i.v. injection ref 18): 56.4 ± 0.98 min | clearance ([7]; 1 mg per pig i.v. injection, no reference given): 2.0 ± 0.4 mL/min/kg | Vd ([7]; single dose 1 mg i.v. ref 14): 0.304 ± 0.112 L/kg | t1/2 ([7]; single dose of 1 mg i.v. injection ref 14): 103 ± 20 min | Degradation by pyroglutamyl-amino-peptidase [8]: rapidly degraded
